In patent publication US8106003B2, “Peptides and methods for the treatment of inflammatory disease” (Auckland Uniservices Limited, priority 2004, dated 2012):
Entries after “also recorded” stand apart in the source; their conditions may differ. Non-standard residues stand in square brackets, D forms with d. Residues, ends and D or L forms follow the SMILES beside them. No end group written: not given here. *: point of attachment. Biotin = O=C1N[C@H]2[C@H](CS[C@H]2CCCCC(=O)*)N1

What was measured:
[1] = tested on: adhesion of H9 cells to VCAM-1; assay: Cell adhesion assay: H9 cells to VCAM-1-Fc; assay type: cell-based, human; conditions: Mn++ or PMA-activated H9 cells
Procedure: (§1) Cell adhesion assays. Lab-Tek 16-well glass slides (Nunc) or flat-bottomed 96-well maxisorb plates (Nunc) were coated with purified mouse MAdCAM-1-Fc, human VCAM-1-Fc, and human ICAM-1-Fc (70 to 100 μl of 5 to 10 μg/ml), and incubated at 4° C. overnight. Slides were washed once with PBS, and blocked with FCS for 2 h at room temperature. Slides were washed with Hanks balanced salt solution (HBSS) containing 10 mM Hepes. Cells were either left unlabeled or labeled with the fluorescent dye chloromethyl fluorescein diacetate (CMFDA; Molecular Probes, Oregon), and activated by resuspension in HBSS containing 10 mM Hepes supplemented with 2 mM Ca^++ and 2 mM Mn^++. Cells were alternatively activated with 50 ng/ml PMA, or by incubating with AlF4^− (10 mM NaF and 40 µM AlCl3). They were preincubated with peptides at different concentrations for 10 min at room temperature, checked for viability by trypan blue exclusion, and then 10^6 cells added to each coated well and left to adhere for 30 min at room temperature. Non-adherent unlabeled cells in 16-well glass slides were removed by twice dipping slides gently into PBS, and adherent cells fixed in PBS containing 2% (v/v) glutaraldehyde for at least 3 h. The number of adherent cells was determined by counting the number of adherent cells in four independent fields at 100× magnification under an inverted microscope. Alternatively, non-adherent CMFDA-labeled cells in 96-well plates were removed by inverse centrifugation at 70×g for 5 min into 50 mM Tris pH 7.5, 150 mM NaCl, 2 mM MnCl2, followed by gentle washing with a pipette. The fluorescence of CMFDA-labeled adherent cells was measured using a VICTOR 1420 multilabel counter (Wallac). Unless otherwise stated, experiments were repeated in triplicate, using duplicate wells.

[2] = tested on: α4β7-mediated adhesion of TK-1 cells to RGD polymer; assay: Cell adhesion assay: TK-1 cells to fibronectin-like polymer (RGD); assay type: cell-based, mouse; conditions: for inhibition of TK-1 cell adhesion to RGD polymer: Mn++ or PMA-activated cells preincubated with increasing concentrations of peptide
[3] = tested on: α4β7-mediated adhesion of TK-1 cells to VCAM-1; assay: Cell adhesion assay: TK-1 cells to immobilised VCAM-1-Fc; assay type: cell-based, mouse; conditions: for inhibition of TK-1 cell adhesion to VCAM-1: Mn++ or PMA-activated cells preincubated with increasing concentrations of peptide; for inhibition of adhesion of CMFDA-labeled TK-1 cells to immobilized human VCAM-1-Fc: R9-fused L and D analogs of YDRREY, fluorescence readout
Procedure: as §1

[4] = tested on: adhesion of H9 cells to RGD polymer; assay: Cell adhesion assay: H9 cells to RGD polymer; assay type: cell-based, human; conditions: data not shown
[5] = tested on: α4β7-mediated adhesion of TK-1 cells to MAdCAM-1; assay: Cell adhesion assay: TK-1 cells to immobilised MAdCAM-1-Fc; assay type: cell-based, mouse; conditions: for inhibition of TK-1 cell adhesion to MAdCAM-1: Mn++, PMA or AlF4−-activated cells preincubated with increasing concentrations of peptide
Procedure: as §1

TK-1 T cells [6] = assay: Peptide internalization and visualization in TK-1 cells; assay type: cell-based, mouse; conditions: confocal microscopy; for uptake of penetratin-fused peptide into TK-1 cells: 50 μM peptide, 1 h, FITC-streptavidin; for internalization of R9-fused peptide by TK-1 cells: 30 min incubation
Procedure: Peptide internalization and visualization. […] After washing with PBS, cells were resuspended into PBS/1% FCS and cytocentrifuged onto glass slides. Cytospin smears were fixed with 4% paraformaldehyde in PBS for 15 min at room temperature, washed twice with PBS and permeabilized in PBS containing 0.2% Triton X-100 for 10 min. Biotinylated peptide was detected by incubating the slides with streptavidin-FITC (Sigma, Mo.), and visualized using a Leica TCS 4D confocal laser microscope. Images were processed using Leica Scanware™ 4.2 A software and Adobe Photoshop 5.0.

[7] = tested on: kinase(s) in TK-1 cell lysate; assay: Assay to test whether β7 cytoplasmic domain peptides bind a kinase(s); assay type: biochemical, mouse; conditions: lysates of unactivated or AlF4−-activated TK-1 cells
Procedure: Assay to test whether β7 cytoplasmic domain peptides bind a kinase(s). TK-1 cells (3×10^6) were lysed in 1 ml of lysis buffer, and centrifuged at 12,000×g for 10 min at 4° C. Supernatants were precleared with 10 μl of Sepharose and then 10 μl of streptavidin-Sepharose. Cytoplasmic domain peptides were screened for their ability to associate with a kinase in lysates of TK-1 cells that were either left unactivated or had been activated with AlF4^−. Biotinylated peptides immobilized on 5 μl of streptavidin-Sepharose were incubated with 1 ml of lysis buffer containing 1 μl of cell lysate for 2 h at 4° C. with gentle shaking. The beads were washed thrice with ice-cold lysis buffer, once with kinase buffer, and were incubated with 30 μl kinase buffer and 0.5 to 1 μCi γ-ATP for 20 min at 30° C. Beads were washed five times, and radioactivity measured in a scintillation counter.

[8] = tested on: adhesion of H9 cells to MAdCAM-1; assay: Cell adhesion assay: H9 cells to MAdCAM-1-Fc; assay type: cell-based, human; conditions: Mn++ or PMA-activated H9 cells
Procedure: as §1

[9] = tested on: H9 cells adhered to MAdCAM-1 and VCAM-1; assay: Detachment of already adhered H9 cells (established focal adhesions); assay type: cell-based, human; conditions: Mn++ and PMA-activated cells, incubated 1 h with peptide after adhesion
Procedure: (§2) FIG. 5: Illustrates peptide β7-2 blocks ligand-induced clustering of α4β7 at the cell surface, but cannot disrupt established focal adhesions. (A) Peptide β7-2 blocks ligand-induced clustering of α4β7. TK-1 cells were preincubated with either the β7-2 or β7-3 peptides, or no peptide, and activated with AlF4^−. Ligand-induced clustering of α4β7 was induced by addition of MAdCAM-1-Fc, and cluster formation after 30 min was determined by staining cells with FITC-conjugated M293 mAb (anti-β7 subunit), followed by confocal microscopy. […] TK-1 (B, D) and H9 (C, E) cells activated with Mn^++, and PMA were adhered to glass slides coated with MAdCAM-1-Fc (B, C), and VCAM-1-Fc (D, E), and then incubated for 1 h with peptide β7-2. Cells bound were counted, and represent the mean±SD from four fields. Experiments were performed in triplicate.
(§3) Cell adhesion assays. Lab-Tek 16-well glass slides (Nunc) or flat-bottomed 96-well maxisorb plates (Nunc) were coated with purified mouse MAdCAM-1-Fc, human VCAM-1-Fc, and human ICAM-1-Fc (70 to 100 μl of 5 to 10 μg/ml), and incubated at 4° C. overnight. […] The number of adherent cells was determined by counting the number of adherent cells in four independent fields at 100× magnification under an inverted microscope. […] The fluorescence of CMFDA-labeled adherent cells was measured using a VICTOR 1420 multilabel counter (Wallac). […]

[10] = tested on: MAdCAM-1-induced clustering of α4β7 on TK-1 cells; assay: Confocal microscopy analysis of receptor clustering; assay type: cell-based, mouse; conditions: AlF4−-activated TK-1 cells, peptide 50 μM
Procedure: Confocal microscopy analysis of receptor clustering. TK-1 cells were incubated in the presence or absence of peptides (50 μM) for 1 h at room temperature, and cells were activated for 30 min at room temperature in HBSS containing 2 mM Ca++ and AlF4^−. Cells were incubated with MAdCAM-1-coated microspheres for 1 h on ice. They were washed with PBS containing 0.02% sodium azide, and fixed in 4% (w/v) paraformaldehyde in PBS for an additional 1 h. They were then stained with FITC-conjugated anti-β7 subunit M293 mAb, washed and fixed as above. Cells were mixed 1:1 with Citifluor glycerol/PBS solution, mounted on slides, and analyzed using a Leica TCS4D confocal laser scanning microscope equipped with an external argon-krypton laser (488 nm). Images were digitally recorded and printed on an Epson colour printer using Microsoft Power Point software.

[11] = tested on: TK-1 cells adhered to MAdCAM-1 and VCAM-1; assay: Detachment of already adhered TK-1 cells (established focal adhesions); assay type: cell-based, mouse; conditions: Mn++ and PMA-activated cells, incubated 1 h with peptide after adhesion
Procedure: as §2, §3

[12] = tested on: tyrosine phosphorylation of β7cyt; assay: In vitro kinase assay of GST-β7cyt fusion protein with H9 cell lysate; assay type: biochemical, human; conditions: genistein at 20 μM; H9 cell lysate 1:100
Procedure: Phosphorylation of recombinant GST fusion protein encoding β7cyt. H9 cells (5×10^7) were lysed at 4° C. in 1 ml of lysis buffer (10 mM Tris pH 7.4, 50 mM NaCl, 50 mM NaF, 1 mM sodium orthovanadate, 300 μg/ml PMSF, 20 μg/ml aprotinin, 10 μg/ml leupeptin, and 1% NP-40), centrifuged, and the supernatant precleared with GST-Sepharose. A GST fusion protein (50 μg) encoding the β7 subunit cytoplasmic domain bound to glutathione-Sepharose was incubated with trace amounts (1:100 dilution) of precleared lysate for 2 h at 4° C. The beads were washed thrice with lysis buffer and thrice with kinase buffer (10 mM Tris pH 7.4, 50 mM NaCl, 5 mM MgCl2, 5 mM MnCl2, 0.1 mM Na3VO4), and incubated in 30 μl kinase buffer containing 0.5 μCi [^32P] γATP for 20 min at 30° C. The sample was subjected to SDS-PAGE on a 10% acrylamide gel. The gel was stained with Coomassie Blue to visualize the GST fusion protein, and treated with 1 M KOH at 55° C. for 2 h to remove alkali-labile phosphate moieties on serine and threonine. The gel was dried, and subjected to autoradiography.

TK-1 T cells [13] = assay type: cell-based, mouse

Compound	inhibition of H9 cell adhesion to VCAM-1 [1]	inhibition of TK-1 cell adhesion to RGD polymer [2]	inhibition of TK-1 cell adhesion to VCAM-1 [3]	inhibition of TK-1 cell adhesion to MAdCAM-1 [5]	uptake of penetratin-fused peptide into TK-1 cells (TK-1 T cells [6])	formation of a phosphorylated complex (kinase association / phosphorylation of immobilized peptide) [7]	inhibition of H9 cell adhesion to MAdCAM-1 [8]	further results
YDRREY [β7-8] (Biotin-RQIKIWFQNRRMKWKKYDRREY; not fully specified)	also blocked	retained the ability to block	retained the ability to block	retained the ability to block	taken up	formed a phosphorylated complex	also blocked	inhibition of H9 cell adhesion to RGD polymer [4]: also blocked
RLSVEIYDRREY [β7-2]	blocked	abrogated	abrogated	abrogated	taken up	–	blocked	reduction in TK-1 cell binding to the RGD polymer ([2]; 100 μm of peptide): 50%; detachment of H9 cells already adhered to MAdCAM-1 and VCAM-1 [9]: not able to detach; also recorded: cannot disrupt focal adhesions to detach cells; blockade of TK-1 cell-binding to VCAM-1 ([3]; 100 μm of peptide): almost completely blocked; blockade of TK-1 cell-binding to MAdCAM-1 ([5]; 100 μm of peptide): almost completely blocked; blockade of MAdCAM-1-induced clustering (redistribution) of α4β7 at the cell surface [10]: completely blocked; also recorded: blocks; detachment of TK-1 cells already adhered to MAdCAM-1 and VCAM-1 [11]: not able to detach; also recorded: cannot disrupt focal adhesions to detach cells
QLNWKQDSNPLYKSAITTT [β7-4]	completely ineffective	–	–	–	taken up	formed a phosphorylated complex	completely ineffective	–
β7-7: β7cyt residues 729-735 (SEQ ID NO. 24) fused to penetratin (Biotin-RQIKIWFQNRRMKWKKRLSVEIY; not fully specified)	–	completely ineffective	completely ineffective	completely ineffective	taken up	did not form a phosphorylated complex	–	–
YDRREY [β7-12]	–	–	–	inhibited	–	–	–	inhibition of adhesion of CMFDA-labeled TK-1 cells to immobilized human VCAM-1-Fc [3]: inhibit; internalization of R9-fused peptide by TK-1 cells (TK-1 T cells [6]): rapidly internalized
β7-10: peptide β7-12 truncated to remove tyrosine 735 (SEQ ID NO. 26), fused to r9 (Biotin-[dR][dR][dR][dR][dR][dR][dR][dR][dR]DRREY)	–	–	–	not able to inhibit	–	formed a phosphorylated complex	–	–
β7-5: extreme C-terminal control peptide of β7cyt (SEQ ID NO. 23) fused to penetratin (Biotin-RQIKIWFQNRRMKWKKTTTINPRFQEADSPTL; not fully specified)	completely ineffective	–	–	–	taken up	did not form a phosphorylated complex	completely ineffective	–
O=c1c(-c2ccc(O)cc2)coc2cc(O)cc(O)c12 [genistein]	–	–	–	–	–	–	–	blockade of phosphorylation of β7cyt [12]: completely blocked
β7-11: peptide β7-12 truncated to remove tyrosine 740 (SEQ ID NO. 27), fused to r9 (Biotin-[dR][dR][dR][dR][dR][dR][dR][dR][dR]YDRRE)	–	–	–	not able to inhibit	–	formed a phosphorylated complex	–	–
N=C(N)NCCC[C@@H](NC(=O)CCCC[C@@H]1SC[C@@H]2NC(=O)N[C@@H]21)C(=O)N[C@H](CCCNC(=N)N)C(=O)N[C@H](CCCNC(=N)N)C(=O)N[C@H](CCCNC(=N)N)C(=O)N[C@H](CCCNC(=N)N)C(=O)N[C@H](CCCNC(=N)N)C(=O)N[C@H](CCCNC(=N)N)C(=O)N[C@H](CCCNC(=N)N)C(=O)N[C@H](CCCNC(=N)N)C(=O)N[C@H](Cc1ccc(O)cc1)C(=O)N[C@H](CC(=O)O)C(=O)N[C@H](CCCNC(=N)N)C(=O)N[C@H](CCCNC(=N)N)C(=O)N[C@H](CCC(=O)O)C(=O)N[C@H](Cc1ccc(O)cc1)C(=O)O [β7-13] (Biotin-[dR][dR][dR][dR][dR][dR][dR][dR][dR][dY][dD][dR][dR][dE][dY]-OH; N-terminus and C-terminus assumed)	–	–	–	–	–	–	–	inhibition of adhesion of CMFDA-labeled TK-1 cells to immobilized human VCAM-1-Fc [3]: inhibit; inhibition of adhesion of CMFDA-labeled TK-1 cells to immobilized human VCAM-1-Fc ([3]; listed as D-amino acid form): as equally potent as the L-enantiomer; cytotoxic concentration (TK-1 T cells [13]; 2 h): exceeding 50 μM; cell death (TK-1 T cells [13]; at 100 μM, data not shown): 50%; internalization of R9-fused peptide by TK-1 cells (TK-1 T cells [6]): internalized
